Measured values reported in patent US20040023362A1, “Degradation of polycyclic aromatic hydrocarbons by microorganisms” (priority 2000, published 2004).

Tests used:
VUN 110,013 = format: cell-based, Burkholderia sp.; conditions: substrate 50 mg l^−1 (or vapor phase), sole carbon source
Method: (§1) Gram staining and biochemical tests for bacterial identification were performed according to Collin et al. (1989) following growth in nutrient broth or nutrient agar. […] Compounds tested were added to BSM as a sole carbon and energy source at 50 mg l^−1, and volatile compounds were supplied to the culture in the vapour phase. […] The cells were collected and washed in BSM and the resuspended cells were inoculated into BSM containing different carbon sources. Inoculated BSM without an added carbon source and uninoculated BSM plus carbon source were used as controls. Inocula for the PAH degradation tests were transferred directly from parent cultures, but inocula for other carbon sources were washed prior to inoculation.

VUN 110,011 = experiment: Growth of PAH-degrading bacteria on a variety of carbon sources; format: cell-based, Pseudomonas fluorescens; conditions: substrate 50 mg l^−1 (or vapor phase), sole carbon source
Method: as §1

VUN 110,012 = experiment: as above; format: cell-based, Stenotrophomonas maltophilia; conditions: substrate 50 mg l^−1 (or vapor phase), sole carbon source
Method: as §1

VUN 110,010 = experiment: as above; format: cell-based, Stenotrophomonas maltophilia; conditions: substrate 50 mg l^−1 (or vapor phase), sole carbon source
Method: as §1

[1] = system: strains VUN 10,010, VUN 10,011 and VUN 10,012; experiment: Growth of all the strains on compounds as sole carbon and energy source; format: cell-based; conditions: supplied at 50 mg l^−1
Method: as §1

[2] = system: S. maltophilia VUN 10,010; experiment: Degradation of single high molecular weight PAHs by high initial populations of VUN 10,010 with surfactant; format: cell-based, Stenotrophomonas maltophilia
Method: […] Incubations contained a single PAH in BSM at 30° C. The PAH remaining was calculated as a percentage relative to the PAH recovered from the […]. Averages for the test cultures are from triplicate experiments.
Tergitol NP-10 (5 and 10 g l^−1) was added to BSM broths each containing a single high molecular weight PAH.

[3] = Tergitol NP-10 5 g l^−1, Single PAH
[4] = Tergitol NP-10 10 g l^−1, Single PAH

Molecule | Growth (VUN 110,013) | Growth (VUN 110,011) | Growth (VUN 110,012) | Growth (VUN 110,010) | growth on compound as the sole carbon and energy source [1] | other results
Oc1c(Cl)c(Cl)cc(Cl)c1Cl [2,3,5,6-tetrachloro-phenol] | + | + | + | + |  | 
Oc1cc(Cl)c(Cl)cc1Cl [2,4,5-trichloro-phenol] | + | + | + | + |  | 
Oc1cc(Cl)ccc1Cl [2,5-dichlorophenol] | + | + | + | + | grew | 
Oc1ccc(Cl)cc1 [4-chlorophenol] | + | − | + | + | grew | 
O=[N+]([O-])c1ccc(O)cc1 [4-nitrophenol] | − | − | − | − |  | 
c1ccccc1 [Benzene] | + | + | + | + | grew | 
O=C(O)c1ccccc1 [Benzoic acid] | + | + | + | + | grew | 
Oc1ccccc1O [Catechol] | + | + | + | + | grew | 
O=C(O)C=Cc1ccccc1 [Cinnamic acid] | − | − | − | + |  | 
c1cc2ccc3ccc4ccc5ccc6ccc1c1c2c3c4c5c61 [Coronene, coronene] |  |  |  |  |  | Maximum Specific Degradation Rate ([2]; Brij 35 5 g l^−1, Single PAH): 0.79 mg PAH degraded mg^−1 protein day^−1; percentage change in maximum specific degradation rate due to surfactant addition ([2]; Brij 35 5 g l^−1, Single PAH): +5%; Maximum Specific Degradation Rate ([2]; Brij 35 10 g l^−1, Single PAH): 1.19 mg PAH degraded mg^−1 protein day^−1; percentage change in maximum specific degradation rate due to surfactant addition ([2]; Brij 35 10 g l^−1, Single PAH): +59%; Maximum Specific Degradation Rate ([2]; No Surfactant, Single PAH): 0.75 mg PAH degraded mg^−1 protein day^−1; PAH degradation rate in the presence of surfactants ([2]; Tergitol NP-10 5 and 10 g l^−1, high initial cell population): did not show improved PAH degradation rate; Maximum Specific Degradation Rate [2, 3]: 0.98 mg PAH degraded mg^−1 protein day^−1; percentage change in maximum specific degradation rate due to surfactant addition [2, 3]: +31%; Maximum Specific Degradation Rate [2, 4]: 0.79 mg PAH degraded mg^−1 protein day^−1; percentage change in maximum specific degradation rate due to surfactant addition [2, 4]: +5%
CC(C)(CO)[C@@H](O)C(=O)NCCC(=O)O [D-panthothenic acid] | + | + | + | + |  | 
O=C(O)c1cc(O)ccc1O [Gentisic acid] | + | + | + | + |  | 
O=C(O)/C=C\C(=O)O [Maleic acid] | + | + | + | + |  | 
O=[N+]([O-])c1ccccc1 [Nitrobenzene] | − | − | + | + |  | 
Oc1c(Cl)c(Cl)c(Cl)c(Cl)c1Cl [Pentachlorophenol] | − | − | + | + |  | 
O=C(O)c1ccccc1C(=O)O [Phthalic acid] | + | + | + | + | grew | 
O=C(O)c1ccc(O)c(O)c1 [Protocatechuic acid] | + | + | + | + | grew | 
CC(=O)C(=O)O [Pyruvate] | + | + | + | + |  | 
O=C(O)c1ccccc1O [Salicylic acid] | + | + | + | + | grew | 
O=C(O)CCC(=O)O [Succinic acid] | + | + | + | + | grew | 
Cc1ccccc1 [Toluene] | − | + | + | + | grew | 
CCCCCCCCCCCCCCCC [n-hexadecane] | + | + | + | + | grew | 
CCCCCCCC [n-octane] | + | + | + | + | grew | 
O=C(O)c1ccc(O)cc1 [p-hydroxybenzoic acid] | + | + | + | + | grew | 
Tween 20 | + | + | + | + | grew | 
Tween 40 |  |  |  |  | grew | 
Tween 60 |  |  |  |  | grew | 
Tween 80 | + | + | + | + | grew | 
